Measured values: patent publication US3994925A, “Salt of the silymarin group with aminopolyhydroxy alcohols” (Dr. Madaus & Co., priority 1973, dated 1976)

System: proseodymium nitrate liver damage
Details: serum, 72 hours after 14 mg/kg praseodymnitrate i.v.; SMG1 140.5 mg/kg i.v. three days, MG1 40.5 mg/kg
Experimental: The liver-protectiveeffect of the SMG1 was tested on white rats, in that experimentally produced liver damage was antagonized by SMG1 treatment. The rats were injected with the SMG1- or MG1-dosages in 5 ml 0.9% NaCl solution, to which 4% of PVP (M.W. about 10,000) was added per kg of body weight. A dosage of 140.5 mg/kg SMG1 corresponds to 100 mg Silymarin and 40.5 mg 1-methylamino-glucose. When the test animals received 140.5 mg/kg SMG1, the control animals were treated with the equivalent dosage of 1-methylamino glucose, i.e. 40.5 mg/kg.
In another series of tests, antagonization of proseodymium nitrate liver damage by SMG1, measured by the reaction of the serum enzyme glutamate-oxalacetate-transaminase (GOT), glutamate-pyruvate-transaminase (GPT), sorbital-dehydrogenase (SDH) and alkaline phosphatases (AP), was employed as a measure of efficacy of the instant materials. […] The test animals, male Wistar rats weighing approximately 200 g, were treated for three days with 140.5 mg/kg SMG1 i.v. On the first testing day, all rats were damaged i.v. with 14 mg/kg praseodymnitrate one hour after the SMG1- or MG1- injection.

With “1-methylamino glucose [1-methylamino-glucose]” the “AP (alkaline phosphatase)” value was 168.0 mU/ml, the GOT was 360.6 mU/ml and the GPT was 118.4 mU/ml. It also gave an SDH of 32.0 mU/ml.
